Results reported in patent US9896440B2, “Aryl substituted heterocyclyl sulfones” (GRÜNENTHAL GMBH, priority 2014, dated 2018).

biological target: T1, Human CaV2.2 channels (Homo sapiens, UniProt Q00975); experiment: Fluorescence assay for CaV2.2 channels using potassium depolarization to induce channel opening (FLIPR, Fluo 4); assay type: cell-based; conditions: 3 μM test compound, 30 mM KCl assay buffer (inactivated channel state), HEK293 cells
T1 construct: expressed in transfected cells; Kir2.3 also stably co-expressed
Description: In the process, the Ca^2+ influx is quantified in the FLIPR assay with the aid of a Ca^2+-sensitive dye (type Fluo-4, Molecular Probes Europe BV, Leiden, the Netherlands) in a fluorescent imaging plate reader (FLIPR 3, Molecular Devices, Sunnyvale, USA), as described hereinafter.
Human CaV2.2 channels were stably expressed in HEK293 cells together with alpha2-delta and beta subunits of voltage gated calcium channels. In addition, an inwardly rectifying potassium channel (Kir2.3) was stably expressed in these cells to augment control of the cell membrane potential by the concentration of extracellular potassium ions. Raise of the extracellular potassium concentration leads to depolarization of the membrane potential and thus regulates the voltage dependent state of CaV2.2 channels. For preparation, cells were seeded in black poly-D-lysine coated 96-well plates (Becton Dickinson, Biocoat 4640) in 100 μL medium [500 mL DMEM/F-12 plus Glutamax (Invitrogen 31331-093) plus 5.5 mL MEM NEAA 100× (Invitrogen 11140-035) plus 50 mL FBS decomplemented (Invitrogen 10270-106) plus 200 μg/mL Geneticin (Invitrogen 10131-027) plus 50 μg/mL Hygromycin B (Invitrogen 10687-010) plus 2 μg/mL Blasticidin (anti-bl5b Invivo-Gen) plus 0.2 μg/mL Puromycin (A 11138-03)] at a cell density of 30.000 cells per well. Plates were incubated at 37° C. (5% CO2) for 20 to 23 h. On the day of experiment medium was discarded and cells were loaded with Fluo 4 by addition of 100 μL of basic assay buffer (10 mM HEPES, 1 mM KCl, 149 mM NaCl, 0.8 mM CaCl2, 1.7 mM MgCl2, 10 mM Glucose, 0.1% BSA. pH 7.4) containing 2 μM Fluo 4 (Molecular Probes; F-14201), 0.01% pluronic acid (Molecular Probes; P-6866) and 2.5 mM probenecid (Molecular Probes; P36400). Cells were incubated in the dark at 25° C. for 60 min. Then dye containing buffer was discarded and 100 μL basic (1 mM KCl) or alternative (30 mM KCl) assay buffer was added. The alternative assay buffer contained altered concentrations of KCl (30 mM) and NaCl (120 mM) and was used in order to promote the inactivated channel state. After that 25 μL of basic or alternative assay buffer with or without test compound were added and cells were incubated again in the dark at 25° C. for 15 min. Fluorescence intensity was measured on a FLIPR 3 instrument (Molecular Devices Corp., Sunnyvale, Calif.) with excitation at 480 nm and emission at 535 nm. After continuously reading fluorescence for 30 sec, 50 μL of basic assay buffer containing 210 mM KCl (NaCl omitted) were added for depolarization. Peak fluorescent signal intensity was determined and the amplitude of the peak signal, normalized to base line, was used to measure channel inhibition by test compounds.

T1 sequence (Q00975 whole entry): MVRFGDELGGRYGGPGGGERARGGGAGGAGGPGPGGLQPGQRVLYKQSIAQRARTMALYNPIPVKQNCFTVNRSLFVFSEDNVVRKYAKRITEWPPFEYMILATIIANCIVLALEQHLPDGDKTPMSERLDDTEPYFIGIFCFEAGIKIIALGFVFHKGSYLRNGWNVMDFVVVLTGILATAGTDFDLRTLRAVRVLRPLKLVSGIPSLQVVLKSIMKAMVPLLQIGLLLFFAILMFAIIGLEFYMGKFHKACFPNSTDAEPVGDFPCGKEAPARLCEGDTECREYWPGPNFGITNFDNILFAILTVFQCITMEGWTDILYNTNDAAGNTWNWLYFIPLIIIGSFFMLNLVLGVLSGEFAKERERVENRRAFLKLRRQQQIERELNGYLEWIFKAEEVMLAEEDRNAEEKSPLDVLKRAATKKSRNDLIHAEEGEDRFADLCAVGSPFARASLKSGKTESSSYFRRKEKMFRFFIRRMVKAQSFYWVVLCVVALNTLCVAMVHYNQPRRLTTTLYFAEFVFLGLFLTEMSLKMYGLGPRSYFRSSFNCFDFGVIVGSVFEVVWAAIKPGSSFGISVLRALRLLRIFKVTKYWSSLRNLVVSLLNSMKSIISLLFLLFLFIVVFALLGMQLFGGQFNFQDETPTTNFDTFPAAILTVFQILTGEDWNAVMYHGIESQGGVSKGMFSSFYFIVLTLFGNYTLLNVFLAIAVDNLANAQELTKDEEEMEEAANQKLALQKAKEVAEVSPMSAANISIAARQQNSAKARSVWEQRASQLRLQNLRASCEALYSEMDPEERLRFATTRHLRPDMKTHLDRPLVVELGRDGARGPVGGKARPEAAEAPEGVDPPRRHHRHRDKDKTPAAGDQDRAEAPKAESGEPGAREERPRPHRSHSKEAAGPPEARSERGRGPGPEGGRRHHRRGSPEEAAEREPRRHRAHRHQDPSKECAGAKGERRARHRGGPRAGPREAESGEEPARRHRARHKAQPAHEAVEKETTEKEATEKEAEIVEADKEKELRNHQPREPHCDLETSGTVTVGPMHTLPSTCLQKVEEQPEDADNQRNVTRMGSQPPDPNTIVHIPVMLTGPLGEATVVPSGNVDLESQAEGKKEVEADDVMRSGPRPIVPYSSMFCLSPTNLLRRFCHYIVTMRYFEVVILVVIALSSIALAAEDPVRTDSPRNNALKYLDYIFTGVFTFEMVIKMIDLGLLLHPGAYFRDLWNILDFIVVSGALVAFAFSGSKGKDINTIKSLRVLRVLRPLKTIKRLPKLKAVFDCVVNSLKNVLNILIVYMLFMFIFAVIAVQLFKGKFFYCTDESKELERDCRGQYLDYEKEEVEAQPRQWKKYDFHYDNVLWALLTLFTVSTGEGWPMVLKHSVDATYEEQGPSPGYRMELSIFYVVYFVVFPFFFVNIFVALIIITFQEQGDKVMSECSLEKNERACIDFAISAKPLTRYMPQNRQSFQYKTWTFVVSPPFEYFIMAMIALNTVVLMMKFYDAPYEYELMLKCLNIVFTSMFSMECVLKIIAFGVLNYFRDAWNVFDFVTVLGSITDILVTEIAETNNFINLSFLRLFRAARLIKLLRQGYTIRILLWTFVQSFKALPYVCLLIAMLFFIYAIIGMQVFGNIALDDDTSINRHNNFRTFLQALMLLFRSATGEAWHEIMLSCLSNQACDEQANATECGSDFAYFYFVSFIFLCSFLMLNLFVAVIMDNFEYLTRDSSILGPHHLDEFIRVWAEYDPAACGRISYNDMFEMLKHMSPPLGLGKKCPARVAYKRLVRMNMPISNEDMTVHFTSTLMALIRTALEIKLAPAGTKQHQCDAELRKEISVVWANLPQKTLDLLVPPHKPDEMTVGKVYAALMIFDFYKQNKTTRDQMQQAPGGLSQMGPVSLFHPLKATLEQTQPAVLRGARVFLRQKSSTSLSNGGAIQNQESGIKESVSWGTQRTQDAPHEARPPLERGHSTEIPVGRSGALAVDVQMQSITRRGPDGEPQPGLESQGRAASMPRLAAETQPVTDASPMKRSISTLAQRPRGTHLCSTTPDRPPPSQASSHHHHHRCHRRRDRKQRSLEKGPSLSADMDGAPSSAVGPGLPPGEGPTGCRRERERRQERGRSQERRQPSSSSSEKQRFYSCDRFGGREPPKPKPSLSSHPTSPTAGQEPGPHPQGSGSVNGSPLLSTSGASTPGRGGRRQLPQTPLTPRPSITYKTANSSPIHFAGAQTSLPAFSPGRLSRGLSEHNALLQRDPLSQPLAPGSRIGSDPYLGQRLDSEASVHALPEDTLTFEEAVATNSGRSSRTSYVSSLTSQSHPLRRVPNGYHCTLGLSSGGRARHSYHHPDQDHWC

Row | Compound | Activity Category: %-Inhib (CaV2.2) @3 μM @30 mM KCl
1 | CC1(S(=O)(=O)c2cccc(C(F)(F)F)c2)CCOC(c2ccc(S(C)(=O)=O)c(F)c2)C1 (stereo not shown) [SC-209, 2-(3-Fluoro-4-methylsulfonyl-phenyl)-4-methyl-4-[[3-(trifluoromethyl)phenyl]sulfonyl]-tetrahydro-pyran] | B (%-Inhibition >75% up to ≦95%)
2 | CC1(S(=O)(=O)c2cccc(C(F)(F)F)c2)CCOC(c2ccc(F)c(S(C)(=O)=O)c2)C1 (stereo not shown) [SC-213, 2-(4-Fluoro-3-methylsulfonyl-phenyl)-4-methyl-4-[[3-(trifluoromethyl)phenyl]sulfonyl]-tetrahydro-pyran] | B (%-Inhibition >75% up to ≦95%)
3 | CN(C)CC1(S(=O)(=O)c2cccc(C(F)(F)F)c2)CCOC(c2ccc(Cl)cc2)C1 (stereo not shown) [SC-214, [[2-(4-Chlorophenyl)-4-[[3-(trifluoromethyl)phenyl]sulfonyl]-tetrahydro-pyran-4-yl]-methyl]-dimethyl-amine] | A (%-Inhibition >95%)
4 | CN(C)CC1(S(=O)(=O)c2cccc(C(F)(F)F)c2)CCOC(c2ccc(Cl)cc2)C1 (stereo not shown) [SC-215, [[2-(4-Chlorophenyl)-4-[[3-(trifluoromethyl)phenyl]sulfonyl]-tetrahydro-pyran-4-yl]-methyl]-dimethyl-amine] | C (%-Inhibition >40% up to ≦75%)
5 | COCC1(S(=O)(=O)c2cccc(C(F)(F)F)c2)CCOC(c2ccc(Cl)cc2)C1 (stereo not shown) [SC-216, 2-(4-Chlorophenyl)-4-(methoxymethyl)-4-[[3-(trifluoromethyl)phenyl]sulfonyl]-tetrahydro-pyran] | B (%-Inhibition >75% up to ≦95%)
6 | COCC1(S(=O)(=O)c2cccc(C(F)(F)F)c2)CCOC(c2ccc(Cl)cc2)C1 (stereo not shown) [SC-217, 2-(4-Chlorophenyl)-4-(methoxymethyl)-4-[[3-(trifluoromethyl)phenyl]sulfonyl]-tetrahydro-pyran] | C (%-Inhibition >40% up to ≦75%)
7 | CC1(S(=O)(=O)c2cccc(C(F)(F)F)c2)CCOC(c2ccccc2S(C)(=O)=O)C1 (stereo not shown) [SC-222, 4-Methyl-2-(2-methylsulfonyl-phenyl)-4-[[3-(trifluoromethyl)phenyl]sulfonyl]-tetrahydro-pyran] | A (%-Inhibition >95%)

same assay, conditions: HEK293, 3 μM test compound, 30 mM KCl assay buffer (inactivated channel state), HEK293 cells; read-out: Activity Category: %-Inhib (CaV2.2) @3 μM @30 mM KCl

Row | Compound | inhibition at 3 µM
8 | Cc1cc(C2CC(C)(S(=O)(=O)c3cccc(C(F)(F)F)c3)CCO2)ccc1S(C)(=O)=O (stereo not shown) [SC-206, 4-Methyl-2-(3-methyl-4-methylsulfonyl-phenyl)-4-[[3-(trifluoromethyl)phenyl]sulfonyl]-tetrahydro-pyran] | > 95%
9 | CC1(S(=O)(=O)c2cccc(C(F)(F)F)c2)CCOC(c2ccc(S(C)(=O)=O)c(F)c2)C1 (stereo not shown) [SC-208, 2-(3-Fluoro-4-methylsulfonyl-phenyl)-4-methyl-4-[[3-(trifluoromethyl)phenyl]sulfonyl]-tetrahydro-pyran] | > 95%
10 | Cc1ccc(C2CC(C)(S(=O)(=O)c3cccc(C(F)(F)F)c3)CCO2)cc1S(C)(=O)=O (stereo not shown) [SC-210, 4-Methyl-2-(4-methyl-3-methylsulfonyl-phenyl)-4-[[3-(trifluoromethyl)phenyl]sulfonyl]-tetrahydro-pyran] | > 95%
11 | CC1(S(=O)(=O)c2cccc(C(F)(F)F)c2)CCOC(c2ccc(F)c(S(C)(=O)=O)c2)C1 (stereo not shown) [SC-212, 2-(4-Fluoro-3-methylsulfonyl-phenyl)-4-methyl-4-[[3-(trifluoromethyl)phenyl]sulfonyl]-tetrahydro-pyran] | > 95%
12 | CC1(S(=O)(=O)c2cccc(C(F)(F)F)c2)CCOC(c2ccc(S(C)(=O)=O)cc2Cl)C1 (stereo not shown) [SC-218, 2-(2-Chloro-4-methylsulfonyl-phenyl)-4-methyl-4-[[3-(trifluoromethyl)phenyl]sulfonyl]-tetrahydro-pyran] | > 95%
13 | CC1(S(=O)(=O)c2cccc(C(F)(F)F)c2)CCOC(c2cccc(S(C)(=O)=O)c2)C1 (stereo not shown) [SC-220, 4-Methyl-2-(3-methylsulfonyl-phenyl)-4-[[3-(trifluoromethyl)phenyl]sulfonyl]-tetrahydro-pyran] | 75 to 95%
